Data from US20160199365A1, “2-Carboxamide Cycloamino Urea Derivatives in Combination with HSP90 Inhibitors for the Treatment of Proliferative Diseases” (Novartis AG, priority 2011, published 2016).
Where two headings read alike, the source gives them in different places.

Assays:
[1] = tested on: NCI-N87 tumors (human gastric carcinoma cells); assay: NCI-N87 gastric cancer xenograft model, first experiment (Example 3); format: in vivo, mice
Protocol: Cells are harvested with trypsin (0.25% w/v)-EDTA (0.53 mM), are re-suspended in culture medium (with additives) and are counted with a Casy® system. Cell culture reagents are purchased from BioConcept (Allschwil, Switzerland). NCI-N87 tumors are established by injecting […] to 1×10^7 cells (in HBSS containing 50% v/v Matrigel) subcutaneously with a 23 Gauge needle. When tumors are established and reach between 180 and 210 mm^3, animals are randomized into treatment groups and the treatments are initiated. Compound A is formulated in NMP/PEG300/Solutol HS15/water (10:30:20:40% vol/vol) The compound is fully dissolved in NMP first and water is added immediately prior to administration to animals. […] All doses of AUY922 refer to the free base equivalent. AUY922 is administered iv at a volume of 10 ml/kg, twice a week. […] Pairwise comparisons are done using a one way ANOVA followed by Tukey's test. The level of significance of body weight change within a group between start and end of the treatment period is determined using a paired t-test. […] Calculations are performed using GraphPad Prism 4 for windows (GraphPad Software Inc.). In addition, an approximation of drug interactions is made using the method described by Clarke R., “Issues in experimental design and endpoint analysis in the study of experimental cytotoxic agents in vivo in breast cancer and other models”, Breast Cancer Res. Treat, 46, 255-78 (1997). This is applied to MV (Tumor volume). Female athymic nude mice are treated orally once a day with 50 mg/kg Compound A, alone or in combination with 50 mg/kg of AUY922 administered intravenously twice a week. […] For compound A, B or the combination AB (with Vehicle Control group C), antagonism is predicted when the calculation AB/C>A/C×B/C, additive effect: AB/C=A/C×B/C, synergistic interactions are predicted to occur when AB/C<[…].

[2] = tested on: HGC-27 subcutaneous xenografts; assay: HGC-27 gastric cancer xenograft model, treatment from day 20 for 14 days (Example 2); format: in vivo, mice
Excerpt: The procedure described in Example 1 is followed with the following modifications: Treatments are initiated on day 20 following tumor cell implantation of 5 million HCG-27 cells, when the average tumor volume is 316 mm^3 (164-485 mm^3).

[3] = tested on: NCI-N87 tumors (human gastric carcinoma cells); assay: NCI-N87 gastric cancer xenograft model, third experiment (Example 3); format: in vivo, mice; conditions: single agent
Protocol: Cells are harvested with trypsin (0.25% w/v)-EDTA (0.53 mM), are re-suspended in culture medium (with additives) and are counted with a Casy® system. Cell culture reagents are purchased from BioConcept (Allschwil, Switzerland). NCI-N87 tumors are established by injecting […] to 1×10^7 cells (in HBSS containing 50% v/v Matrigel) subcutaneously with a 23 Gauge needle. When tumors are established and reach between 180 and 210 mm^3, animals are randomized into treatment groups and the treatments are initiated. Compound A is formulated in NMP/PEG300/Solutol HS15/water (10:30:20:40% vol/vol) The compound is fully dissolved in NMP first and water is added immediately prior to administration to animals. […] All doses of AUY922 refer to the free base equivalent. AUY922 is administered iv at a volume of 10 ml/kg, twice a week. […] Pairwise comparisons are done using a one way ANOVA followed by Tukey's test. The level of significance of body weight change within a group between start and end of the treatment period is determined using a paired t-test. […] Calculations are performed using GraphPad Prism 4 for windows (GraphPad Software Inc.). In addition, an approximation of drug interactions is made using the method described by Clarke R., “Issues in experimental design and endpoint analysis in the study of experimental cytotoxic agents in vivo in breast cancer and other models”, Breast Cancer Res. Treat, 46, 255-78 (1997). This is applied to MV (Tumor volume). In the third efficacy experiment, the tumor model is set up as in the second experiment.

[4] = tested on: KYSE-70 tumors (esophageal squamous cell carcinoma cells); assay: KYSE-70 esophageal squamous cell carcinoma xenograft model (Example 4); format: in vivo, mice
Protocol: KYSE-70 tumors are established by injecting 7.5×10^6 KYSE-70 cells, which are esophageal squamous cell carcinoma cells, in 100 μl cell suspension, with a 23 gauge needle subcutaneously on the right flank of the mice. Ten (10) days after implantation, […]. When tumors are established and reach about 156 mm^3 (minimum 86 mm^3, maximum 218 mm^3) approximately 10 days after implantation, 48 animals are selected and randomized into 6 treatment groups (n=8). Placebo control is formulated as 10 ml/kg of 250 μl NMP, 750 μl PEG300, 500 μl Solutol HS15, and 1000 μl water for delivery once daily per oral (Placebo 1) and as 10 ml/kg of 2.5 ml Glucose for delivery intravenously twice a week (Placebo 2). Compound A is formulated in NMP/PEG300/Solutol HS15/water (10:30:20:40% vol/vol). The compound is fully dissolved in NMP first and water is added immediately prior to administration to animals. […] All doses of AUY922 refer to the free base equivalent. AUY922 is administered iv at a volume of 10 ml/kg, twice a week.

[5] = tested on: HGC-27 subcutaneous xenografts (human gastric carcinoma cells, PIK3CA mutation, PTEN null); assay: HGC-27 gastric cancer xenograft model in female athymic nude mice (Example 1); conditions: for mean change of tumor volume: mean±SEM
Protocol: (§1) Experiments are performed in female Hsd:Athymic Nude-FoxN1^nu Nude mice approximately 8-12 weeks of age at treatment start.
(§2) HGC-27 cells, which are human gastric carcinoma cells with a PIK3CA mutation (c1624G>A, p.E542K) and PTEN null, are grown in MEM culture medium containing 1% non-essential amino acid with 10% heat-inactivated FCS, and are incubated at 37° C. in a 5% CO2 humidified atmosphere.
(§3) HGC-27 tumors are established in vivo by injection 5×10^6 cells in 200 μl (100 μl PBS+100 μl Matrigel) (Cat #354234, BD Bioscience, Bedford, Mass.) subcutaneous into the right flank of the animals. The efficacy experiments are started when the tumors reach an average size of approximately 230 mm^3 (day 12 post cell injection).
(§4) Compound A is formulated in 0.5% Methylcellulose (MC). 80 mg of Compound A is added to 16 ml of 0.5% MC, then stirred/vortexed and sonicated in water bath sonicator for 1 h to obtain 5 mg/ml homogeneous suspension. 0.5% MC is used to dilute the 5 mg/ml solution to 2.5 mg/ml and 1.25 mg/ml for dosing. Compound A or vehicle is administered orally at a volume of 10 ml/kg.
(§5) Tumor volumes are measured with calipers and determined according to the formula: length×diameter^2×π/6. Antitumor activity is expressed as T/C % which is determined according to the formula: (mean change of tumor volume of treated animals/mean change of tumor volume of control animals)×100. Regressions (%) are calculated according to the formula ((mean tumor volume at end of treatment-mean tumor volume at start of treatment)/mean tumor volume at start of treatment)×100. Body weights and tumor volumes are recorded twice a week.
(§6) Where applicable, data is presented as mean±SEM. For all tests, the level of significance is set at p<0.05. For tumor volumes, comparisons between treatment groups and vehicle control group are done using one-way ANOVA followed by Dunnett's test. Tumor volumes comparisons between treatment groups are done using Kruskal-Wallis one way ANOVA post-hoc Student Newman Kuels test or Dunn's test. In the first experiment, Compound A is orally administered daily to HGC-27 subcutaneous xenografts, tumor-bearing nude mice at a dose of 12.5 mg/kg, 25 mg/kg and 50 mg/kg.

[6] = tested on: NCI-N87 tumors (human gastric carcinoma cells); assay: NCI-N87 gastric cancer xenograft model, second experiment (Example 3); format: in vivo, mice; conditions: single agent
Protocol: Cells are harvested with trypsin (0.25% w/v)-EDTA (0.53 mM), are re-suspended in culture medium (with additives) and are counted with a Casy® system. Cell culture reagents are purchased from BioConcept (Allschwil, Switzerland). NCI-N87 tumors are established by injecting […] to 1×10^7 cells (in HBSS containing 50% v/v Matrigel) subcutaneously with a 23 Gauge needle. When tumors are established and reach between 180 and 210 mm^3, animals are randomized into treatment groups and the treatments are initiated. Compound A is formulated in NMP/PEG300/Solutol HS15/water (10:30:20:40% vol/vol) The compound is fully dissolved in NMP first and water is added immediately prior to administration to animals. […] All doses of AUY922 refer to the free base equivalent. AUY922 is administered iv at a volume of 10 ml/kg, twice a week. […] Pairwise comparisons are done using a one way ANOVA followed by Tukey's test. The level of significance of body weight change within a group between start and end of the treatment period is determined using a paired t-test. […] Calculations are performed using GraphPad Prism 4 for windows (GraphPad Software Inc.). In addition, an approximation of drug interactions is made using the method described by Clarke R., “Issues in experimental design and endpoint analysis in the study of experimental cytotoxic agents in vivo in breast cancer and other models”, Breast Cancer Res. Treat, 46, 255-78 (1997). This is applied to MV (Tumor volume).

[7] = tested on: HGC-27 subcutaneous xenografts (human gastric carcinoma cells, PIK3CA mutation, PTEN null); conditions: mouse, in vivo, po
Protocol: as §1, §2, §3, §4, §5, §6

[8] = Stability of Compound A dosing formulation; format: physicochemical; conditions: room temperature
Protocol: Compound A is formulated in NMP/PEG300/Solutol HS15/water (10:30:20:40% vol/vol) The compound is fully dissolved in NMP first and water is added immediately prior to administration to animals.
Compound A is formulated in NMP/PEG300/Solutol HS15/water (10:30:20:40% vol/vol). The compound is fully dissolved in NMP first and water is added immediately prior to administration to animals.

[9] = Group 4: 50 mg/kg AUY922 intravenous twice a week
[10] = AUY922 50 mg/kg i.v. twice a week
[11] = Compound A 50 mg/kg orally once a day
[12] = Group 2: 12.5 mg/kg Compound A per oral once daily
[13] = Group 3: 50 mg/kg Compound A per oral once daily

In the case of `CCNC(=O)c1noc(-c2cc(C(C)C)c(O)cc2O)c1-c1ccc(CN2CCOCC2)cc1` [AUY922, 5-(2,4-Dihydroxy-5-isopropyl-phenyl)-4-(4-morpholin-4-ylmethyl-phenyl)-isoxazole-3-carboxylic acid ethylamide, reference compound], the tumor regressions ([1]; AUY922 50 mg/kg i.v. twice a week, single agent) was 7%, the “mean change of tumor volume” value ([1]; AUY922 50 mg/kg i.v. twice a week, single agent, ±SEM) was −15.1±21.4 mm^3 and the “ΔTV AUY922 (B)” value ([1]; AUY922 50 mg/kg i.v. twice a week, change of tumor volume (mm^3)) was −15.1. For the same molecule, the B/C ([1]; ΔTV of AUY922 over vehicle control, Clarke method) was −0.061, the T/C ([2]; AUY922 50 mg/kg 2q.w. i.v.) was 57% and the T/C ([3]; AUY922 50 mg/kg) was 14%. The “mean change of tumor volume” value ([3]; AUY922 50 mg/kg, ±SEM) was 27.4±10.2 mm^3, the “T/C [%] Day 10” value [4, 9] was 100.0% and the “T/C [%] Day 14” value [4, 9] was 145.3%. The “T/C [%] Day 17” value [4, 9] was 144.4%, the “T/C [%] Day 21” value [4, 9] was 131.8% and the “T/C [%] Day 24” value [4, 9] was 141.1%. For the same molecule, the “T/C %” value ([5]; AUY922 50 mg/kg free base i.v. twice a week) was 60.5%, the body weight change [5, 10] was 6.6±2.6% and the “mean change of tumor volume” value [5, 10] was 792.2±159 mm^3. For the same molecule, the T/C ([6]; AUY922 50 mg/kg i.v. twice per week) was 4.7% and the “mean change of tumor volume” value ([6]; AUY922 50 mg/kg, ±SEM) was 17.9±11.0 mm^3.

For `Cc1nc(NC(=O)N2CCC[C@H]2C(N)=O)sc1-c1ccnc(C(C)(C)C(F)(F)F)c1` [Compound A, (S)-Pyrrolidine-1,2-dicarboxylic acid 2-amide 1-({4-methyl-5-[2-(2,2,2-trifluoro-1,1-dimethyl-ethyl)-pyridin-4-yl]-thiazol-2-yl}-amide)], the T/C ([1]; Compound A 50 mg/kg orally once a day, single agent) was 4.2%, the “ΔTV Cmpd. A (A)” value ([1]; Compound A 50 mg/kg orally once a day, change of tumor volume (mm^3)) was 1.4 and the A/C ([1]; ΔTV of Compound A over vehicle control, Clarke method) was 0.006. For the same molecule, the T/C ([2]; Compound A 25 mg/kg q.d. p.o.) was 11%, the T/C ([2]; Compound A 50 mg/kg q.d. p.o.) was 10% and the T/C ([3]; Compound A 12.5 mg/kg orally once a day) was 37.8%. The “mean change of tumor volume (mm^3±SEM)” value ([3]; Compound A 12.5 mg/kg) was 73.9±17.6 mm^3, the regressions [3, 11] was 6.4% and the “mean change of tumor volume (mm^3±SEM)” value ([3]; Compound A 50 mg/kg) was −13.3±6.7 mm^3. For the same molecule, the “T/C [%] Day 10” value [4, 12] was 100.0%, the “T/C [%] Day 14” value [4, 12] was −7.1% and the “T/C [%] Day 17” value [4, 12] was 74.0%. For the same molecule, the “T/C [%] Day 21” value [4, 12] was 40.6%, the “T/C [%] Day 24” value [4, 12] was 47.5% and the “T/C [%] Day 10” value [4, 13] was 100.0%. For the same molecule, the “T/C [%] Day 14” value [4, 13] was −49.3%, the “T/C [%] Day 17” value [4, 13] was −2.7% and the “T/C [%] Day 21” value [4, 13] was −40.1%. For the same molecule, the “T/C [%] Day 24” value [4, 13] was −10.9%, the T/C % ([5]; Compound A 12.5 mg/kg p.o. once daily, 12 days, day 23) was 39.4% and the “mean change of tumor volume” value ([5]; Compound A 12.5 mg/kg p.o. once daily) was 515±85 mm^3. The T/C % ([5]; Compound A 25 mg/kg p.o. once daily, 12 days, day 23) was 35.5%, the “mean change of tumor volume” value ([5]; Compound A 25 mg/kg p.o. once daily) was 465±111 mm^3 and the T/C % ([5]; Compound A 50 mg/kg p.o. once daily, 12 days, day 23) was 7.1%. The “mean change of tumor volume” value ([5]; Compound A 50 mg/kg p.o. once daily) was 93±77 mm^3, the T/C ([6]; Compound A 12.5 mg/kg orally once a day, not statistically significant) was 30.3% and the “mean change of tumor volume (mm^3±SEM)” value ([6]; Compound A 12.5 mg/kg) was 114.9±43.9 mm^3. For the same molecule, the regressions [6, 11] was 1.2%, the “mean change of tumor volume (mm^3±SEM)” value ([6]; Compound A 50 mg/kg) was −2.3±15.2 mm^3 and the body weight change ([7]; 12.5 mg/kg) was 5.3±1.4%. For the same molecule, the body weight change ([7]; 25 mg/kg) was 2.2±1.1%, the body weight change ([7]; 50 mg/kg) was −1.1±1.6% and the stability of suspension ([8]; Compound A in NMP/PEG300/Solutol HS15/water (10:30:20:40% vol/vol)) was “stable for one week”. The stability of suspension ([8]; Compound A suspension in 0.5% Methylcellulose) was “stable for one week”.
